Reference: ChEMBL document CHEMBL1255557, “Heterobiaryl and heterobiaryl ether derived M5 positive allosteric modulators” (Bioorg Med Chem Lett, 2010)
Activity calls are given as the source filed them. No cut-off for these calls is given here.

Experiments:
[1] = target: T1, Muscarinic acetylcholine receptor M5 (Homo sapiens, UniProt P08912); assay: Positive allosteric modulation of muscarinic M5 receptor expressed in CHO cells assessed as effect on acetylcholine-induced intracellular calcium mobilization after 1 hr by FLIPR assay; assay type: functional, cell-based
T1 sequence (P08912 whole entry): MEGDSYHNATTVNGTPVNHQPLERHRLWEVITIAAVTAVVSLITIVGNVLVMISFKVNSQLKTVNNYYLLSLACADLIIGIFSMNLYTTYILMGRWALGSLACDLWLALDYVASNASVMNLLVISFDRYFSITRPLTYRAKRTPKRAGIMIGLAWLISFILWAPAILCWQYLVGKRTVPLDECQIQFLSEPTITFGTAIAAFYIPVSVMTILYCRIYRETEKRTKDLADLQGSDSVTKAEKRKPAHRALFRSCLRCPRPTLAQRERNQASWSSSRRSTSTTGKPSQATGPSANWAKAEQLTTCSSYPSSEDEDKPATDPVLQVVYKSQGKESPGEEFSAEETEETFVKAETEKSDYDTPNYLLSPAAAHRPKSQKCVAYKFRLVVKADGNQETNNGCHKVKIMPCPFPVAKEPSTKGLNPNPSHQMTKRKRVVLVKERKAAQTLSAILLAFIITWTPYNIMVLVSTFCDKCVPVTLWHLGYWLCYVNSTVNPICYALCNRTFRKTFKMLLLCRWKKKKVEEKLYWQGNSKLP

[2] = target: Sodium-dependent noradrenaline transporter (Homo sapiens) (UniProt P23975); assay: Inhibition of NET
Sodium-dependent noradrenaline transporter (Homo sapiens), sequence (P23975 whole entry): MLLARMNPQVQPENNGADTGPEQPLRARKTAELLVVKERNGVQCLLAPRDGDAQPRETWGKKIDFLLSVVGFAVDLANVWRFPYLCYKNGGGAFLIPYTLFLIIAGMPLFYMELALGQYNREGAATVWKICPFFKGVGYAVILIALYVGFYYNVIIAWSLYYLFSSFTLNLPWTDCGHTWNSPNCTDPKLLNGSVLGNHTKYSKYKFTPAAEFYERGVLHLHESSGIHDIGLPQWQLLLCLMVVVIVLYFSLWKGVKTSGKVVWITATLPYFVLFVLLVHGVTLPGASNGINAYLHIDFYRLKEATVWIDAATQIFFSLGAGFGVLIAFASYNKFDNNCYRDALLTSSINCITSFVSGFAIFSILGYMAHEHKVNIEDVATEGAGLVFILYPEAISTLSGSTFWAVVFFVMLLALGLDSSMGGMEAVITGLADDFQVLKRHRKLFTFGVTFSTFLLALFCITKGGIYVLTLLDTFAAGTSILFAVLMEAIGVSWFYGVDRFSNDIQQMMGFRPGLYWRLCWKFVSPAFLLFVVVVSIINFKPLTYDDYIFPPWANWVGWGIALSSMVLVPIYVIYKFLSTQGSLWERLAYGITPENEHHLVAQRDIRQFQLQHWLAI

[3] = target: Muscarinic acetylcholine receptor M3 (Homo sapiens) (UniProt P20309); assay: Positive allosteric modulation of muscarinic M3 receptor expressed in CHO cells assessed as potentiation of acetylcholine-induced intracellular calcium mobilization at 30 uM after 1 hr by FLIPR assay relative to acetylcholine; assay type: functional, cell-based
Muscarinic acetylcholine receptor M3 (Homo sapiens), sequence (P20309 whole entry, looked up): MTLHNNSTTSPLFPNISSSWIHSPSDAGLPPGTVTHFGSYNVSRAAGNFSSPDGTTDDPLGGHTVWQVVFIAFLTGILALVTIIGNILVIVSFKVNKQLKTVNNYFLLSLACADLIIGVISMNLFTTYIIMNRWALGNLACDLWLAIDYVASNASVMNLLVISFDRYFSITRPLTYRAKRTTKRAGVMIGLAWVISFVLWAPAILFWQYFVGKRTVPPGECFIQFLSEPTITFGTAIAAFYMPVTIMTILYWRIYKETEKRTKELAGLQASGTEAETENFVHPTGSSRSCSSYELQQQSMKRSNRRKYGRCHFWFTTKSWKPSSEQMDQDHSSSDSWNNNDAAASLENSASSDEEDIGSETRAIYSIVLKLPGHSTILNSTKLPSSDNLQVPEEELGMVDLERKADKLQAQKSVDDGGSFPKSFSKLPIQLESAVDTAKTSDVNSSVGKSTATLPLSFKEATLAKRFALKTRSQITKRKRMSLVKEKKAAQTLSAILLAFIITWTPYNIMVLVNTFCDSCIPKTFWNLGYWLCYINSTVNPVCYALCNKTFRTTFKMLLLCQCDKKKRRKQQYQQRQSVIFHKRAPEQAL

[4] = target: T2, Muscarinic acetylcholine receptor M2 (Homo sapiens) (UniProt P08172); assay: Positive allosteric modulation of muscarinic M2 receptor expressed in CHO cells co-expressing Gqi5 assessed as potentiation of acetylcholine-induced intracellular calcium mobilization at 30 uM after 1 hr by FLIPR assay relative to acetylcholine; assay type: functional, cell-based
T2 sequence (whole entry): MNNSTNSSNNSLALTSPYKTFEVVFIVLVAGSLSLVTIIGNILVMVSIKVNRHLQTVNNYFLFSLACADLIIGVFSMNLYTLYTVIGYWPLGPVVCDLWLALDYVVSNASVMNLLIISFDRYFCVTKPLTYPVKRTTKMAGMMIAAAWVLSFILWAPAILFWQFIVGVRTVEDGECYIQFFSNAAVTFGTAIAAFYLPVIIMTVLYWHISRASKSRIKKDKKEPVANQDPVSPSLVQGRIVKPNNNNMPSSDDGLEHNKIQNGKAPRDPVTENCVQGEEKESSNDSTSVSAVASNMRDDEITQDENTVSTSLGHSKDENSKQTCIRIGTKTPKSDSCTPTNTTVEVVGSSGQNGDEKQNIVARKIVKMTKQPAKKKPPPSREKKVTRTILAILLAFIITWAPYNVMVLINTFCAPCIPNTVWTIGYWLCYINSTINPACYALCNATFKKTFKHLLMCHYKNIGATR

[5] = target: T3, Muscarinic acetylcholine receptor M1 (Homo sapiens) (UniProt P11229); assay: Positive allosteric modulation of muscarinic M1 receptor expressed in CHO cells assessed as potentiation of acetylcholine-induced intracellular calcium mobilization at 30 uM after 1 hr by FLIPR assay relative to acetylcholine; assay type: functional, cell-based
T3 sequence (whole entry): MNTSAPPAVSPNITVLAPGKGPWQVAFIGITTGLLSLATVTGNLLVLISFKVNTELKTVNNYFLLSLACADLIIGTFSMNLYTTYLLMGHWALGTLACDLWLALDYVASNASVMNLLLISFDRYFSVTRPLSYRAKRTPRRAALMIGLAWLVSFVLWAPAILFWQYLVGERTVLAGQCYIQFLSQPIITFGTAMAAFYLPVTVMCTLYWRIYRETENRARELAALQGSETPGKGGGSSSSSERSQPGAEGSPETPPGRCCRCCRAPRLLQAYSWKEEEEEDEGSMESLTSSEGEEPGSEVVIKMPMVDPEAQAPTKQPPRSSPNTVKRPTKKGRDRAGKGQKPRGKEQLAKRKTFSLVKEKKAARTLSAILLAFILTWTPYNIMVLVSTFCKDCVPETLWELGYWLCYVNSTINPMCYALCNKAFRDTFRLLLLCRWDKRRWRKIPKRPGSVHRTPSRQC

[6] = target: T4, Muscarinic acetylcholine receptor M5 (Homo sapiens) (UniProt P08912); assay: Positive allosteric modulation of muscarinic M5 receptor expressed in CHO cells assessed as potentiation of acetylcholine-induced intracellular calcium mobilization at 30 uM after 1 hr by FLIPR assay relative to acetylcholine; assay type: functional, cell-based
T4 sequence (whole entry): T1 sequence (P08912 whole entry)

[7] = target: T4, Muscarinic acetylcholine receptor M5 (Homo sapiens); assay: Positive allosteric modulation of muscarinic M5 receptor expressed in CHO cells assessed as effect on acetylcholine-induced intracellular calcium mobilization after 1 hr by FLIPR assay relative to acetylcholine; assay type: functional, cell-based
[8] = target: T5, Muscarinic acetylcholine receptor M4 (Homo sapiens) (UniProt P08173); assay: Positive allosteric modulation of muscarinic M4 receptor expressed in CHO cells co-expressing Gqi5 assessed as potentiation of acetylcholine-induced intracellular calcium mobilization at 30 uM after 1 hr by FLIPR assay relative to acetylcholine; assay type: functional, cell-based
T5 sequence (whole entry): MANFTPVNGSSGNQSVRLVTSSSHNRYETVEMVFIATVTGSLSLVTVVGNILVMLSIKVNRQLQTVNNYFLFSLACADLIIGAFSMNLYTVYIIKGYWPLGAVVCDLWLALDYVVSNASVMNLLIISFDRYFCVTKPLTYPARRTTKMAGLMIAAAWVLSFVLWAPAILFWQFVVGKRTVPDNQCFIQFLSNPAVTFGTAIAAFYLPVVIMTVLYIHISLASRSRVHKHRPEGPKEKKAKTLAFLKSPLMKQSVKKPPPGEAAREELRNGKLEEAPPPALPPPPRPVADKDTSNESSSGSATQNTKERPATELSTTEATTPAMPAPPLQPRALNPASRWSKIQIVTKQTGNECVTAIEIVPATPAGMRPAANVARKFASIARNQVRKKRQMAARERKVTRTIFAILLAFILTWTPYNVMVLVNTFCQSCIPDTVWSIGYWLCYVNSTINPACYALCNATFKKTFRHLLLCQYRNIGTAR

[9] = target: Histamine H1 receptor (Homo sapiens) (UniProt P35367); assay: Inhibition of histamine H1 receptor
Histamine H1 receptor (Homo sapiens), sequence (P35367 whole entry): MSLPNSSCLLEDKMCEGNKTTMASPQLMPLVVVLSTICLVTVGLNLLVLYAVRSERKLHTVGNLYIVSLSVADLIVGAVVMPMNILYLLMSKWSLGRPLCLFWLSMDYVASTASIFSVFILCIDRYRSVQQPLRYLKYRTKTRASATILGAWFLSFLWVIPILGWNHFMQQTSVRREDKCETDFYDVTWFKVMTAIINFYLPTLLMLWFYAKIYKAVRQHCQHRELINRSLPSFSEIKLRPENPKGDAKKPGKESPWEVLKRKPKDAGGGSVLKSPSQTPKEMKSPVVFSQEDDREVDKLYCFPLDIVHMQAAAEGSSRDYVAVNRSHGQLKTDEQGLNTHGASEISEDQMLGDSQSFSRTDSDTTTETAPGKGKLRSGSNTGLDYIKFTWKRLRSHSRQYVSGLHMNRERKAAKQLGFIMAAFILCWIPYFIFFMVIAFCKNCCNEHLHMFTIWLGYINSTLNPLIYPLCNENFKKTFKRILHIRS

[10] = target: T6, Muscarinic acetylcholine receptor M2 (Homo sapiens, UniProt P08172); assay: Positive allosteric modulation of muscarinic M2 receptor expressed in CHO cells co-expressing Gqi5 assessed as effect on acetylcholine-induced intracellular calcium mobilization after 1 hr by FLIPR assay
T6 sequence (P08172 whole entry): T2 sequence (whole entry)

[11] = target: T7, Muscarinic acetylcholine receptor M4 (Homo sapiens, UniProt P08173); assay: Positive allosteric modulation of muscarinic M4 receptor expressed in CHO cells co-expressing Gqi5 assessed as effect on acetylcholine-induced intracellular calcium mobilization after 1 hr by FLIPR assay; assay type: functional, cell-based
T7 sequence (P08173 whole entry): T5 sequence (whole entry)

[12] = Partition coefficient, log P of the compound; assay type: physicochemical; details: octanol/water

Row | EC50 [1] [µM] | inhibition [2] | Activity [3] | Activity [4] | Activity [5] | fold change (FC) [6] | Emax [7] [%] | Activity [8] | inhibition [9] | EC50 [10] [µM] | EC50 [11] [µM] | logP [12] | Structure (SMILES)
1 | 1.5 | Active | inactive | inactive | inactive | 6 | 62 | inactive | Active | – | – | – | O=C1C(=O)N(Cc2ccc(Oc3cccc(F)n3)cc2)c2ccc(OC(F)(F)F)cc21
2 | 4.6 | – | – | – | – | – | – | – | – | > 30 | > 30 | – | O=C1C(=O)N(Cc2ccc(Br)cc2)c2ccccc21
3 | 3.8 | – | inactive | inactive | inactive | 14 | 76 | inactive | – | – | – | 3.6 | O=C1C(=O)N(Cc2ccc(-c3ccccc3)nc2)c2ccc(OC(F)(F)F)cc21
